Assay results: patent US10485235B2, “Aryloxypyrimidinyl ethers as herbicides” (FMC Corporation, priority 2015, dated 2019)

Tests used:
Assay type in all cases: in vivo
[1] = test system: ryegrass, Italian (Italian ryegrass, Lolium multiflorum); assay: Test A postemergence, Italian ryegrass
How it was run: (§1)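 Plants grown in pots of loam blended with sand were treated either before emergence, via directed soil spray, or after emergence at the one- to two-leaf stage. Following about 10 days in the greenhouse, each treatment was visually compared with untreated controls and rated from 0 (no effect) to 100 (complete control).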

[2] = test system: ryegrass, Italian (Italian ryegrass, Lolium multiflorum); assay: Test A preemergence, Italian ryegrass; details: Preemergence, 0 to 100 scale (0 no effect, 100 complete control)
How it was run: as §1

kochia (Kochia scoparia) [3] = assay: Test A preemergence, kochia; details: Preemergence, 0 to 100 scale (0 no effect, 100 complete control)
How it was run: as §1

[4] = test system: ragweed (common ragweed, Ambrosia elatior); assay: Test A preemergence, ragweed; details: Preemergence, 0 to 100 scale (0 no effect, 100 complete control)
How it was run: as §1

[5] = test system: pigweed (Amaranthus retroflexus); assay: Test A preemergence, pigweed; details: Preemergence, 0 to 100 scale (0 no effect, 100 complete control)
How it was run: as §1

kochia (Kochia scoparia) [6] = assay: Test A postemergence, kochia
How it was run: as §1

[7] = test system: ragweed (common ragweed, Ambrosia elatior); assay: Test A postemergence, ragweed
How it was run: as §1

[8] = test system: wheat (Triticum aestivum); assay: Test A postemergence, wheat
How it was run: as §1

[9] = test system: barnyardgrass (Echinochloa crus-galli); assay: Test B flooded paddy test, barnyardgrass; details: 250 g ai/ha, Flood; visual rating after 13 to 15 days; scale 0 to 100, 0 is no effect, 100 is complete control
How it was run: (§2)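 Visual injury scored 0 (no effect) to 100 (complete control) relative to controls 13-15 days after treatment in greenhouse. Treatment: test compound added into paddy water of pots flooded 3 cm over soil, holding 2-leaf-stage plants; water level kept constant.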

[10] = test system: foxtail, giant (giant foxtail, Setaria faberii); assay: Test A postemergence, giant foxtail
How it was run: as §1

rice (Oryza sativa) = assay: Test B flooded paddy test, rice; details: 250 g ai/ha, Flood; visual rating after 13 to 15 days; scale 0 to 100, 0 is no effect, 100 is complete control
How it was run: as §2

[11] = test system: blackgrass (Alopecurus myosuroides); assay: Test A postemergence, blackgrass
How it was run: as §1

corn (Zea mays) = assay: Test A postemergence, corn
How it was run: as §1

[12] = test system: foxtail, giant (giant foxtail, Setaria faberii); assay: Test A preemergence, giant foxtail; details: Preemergence, 0 to 100 scale (0 no effect, 100 complete control)
How it was run: as §1

[13] = test system: galium (catchweed bedstraw, Galium aparine); assay: Test A postemergence, galium
How it was run: as §1

[14] = test system: barnyardgrass (Echinochloa crus-galli); assay: Test A postemergence, barnyardgrass
How it was run: as §1

[15] = test system: pigweed (Amaranthus retroflexus); assay: Test A postemergence, pigweed
How it was run: as §1

[16] = test system: sedge, umbrella (small-flower umbrella sedge, Cyperus difformis); assay: Test B flooded paddy test, umbrella sedge; details: 250 g ai/ha, Flood; visual rating after 13 to 15 days; scale 0 to 100, 0 is no effect, 100 is complete control
How it was run: as §2

[17] = test system: ducksalad (Heteranthera limosa); assay: Test B flooded paddy test, ducksalad; details: 250 g ai/ha, Flood; visual rating after 13 to 15 days; scale 0 to 100, 0 is no effect, 100 is complete control
How it was run: as §2

[18] = test system: barnyardgrass (Echinochloa crus-galli); assay: Test A preemergence, barnyardgrass; details: Preemergence, 0 to 100 scale (0 no effect, 100 complete control)
How it was run: as §1

[19] = 125 g ai/ha, postemergence, 0 to 100 scale, 0 is no effect, 100 is complete control, approximately 10 days
[20] = Postemergence, 31 g ai/ha, 0 to 100 scale (0 no effect, 100 complete control)

Compound	Plant response rating, Ryegrass, Italian [1, 19]	Plant response rating, Ryegrass, Italian [1, 20]	Plant response rating, Ryegrass, Italian ([2]; 31 g ai/ha)	Plant response rating, Ryegrass, Italian ([2]; 125 g ai/ha)	Plant response rating, Kochia (kochia (Kochia scoparia) [3]; 31 g ai/ha)	Plant response rating, Kochia (kochia (Kochia scoparia) [3]; 125 g ai/ha)	Plant response rating, Ragweed ([4]; 31 g ai/ha)	Plant response rating, Ragweed ([4]; 125 g ai/ha)	Plant response rating, Pigweed ([5]; 31 g ai/ha)	Plant response rating, Pigweed ([5]; 125 g ai/ha)	Plant response rating, Kochia (kochia (Kochia scoparia) [6]; [19])	Plant response rating, Kochia (kochia (Kochia scoparia) [6]; [20])	Plant response rating, Ragweed [7, 19]	Plant response rating, Ragweed [7, 20]	Plant response rating, Wheat [8, 19]	Plant response rating, Wheat [8, 20]	Plant response rating, Barnyardgrass [9]	Plant response rating, Foxtail, Giant [10, 19]	Plant response rating, Foxtail, Giant [10, 20]	Plant response rating, Rice (rice (Oryza sativa))	further results
FC(F)(F)CCOc1c(I)cccc1Oc1ncc(Cl)cn1 [Compound 69]	90	0	10	50	80	100	0	0	90	100	100	90	40	30	30	0	40	100	40	15	Plant response rating, Blackgrass [11, 19]: 80; Plant response rating, Blackgrass [11, 20]: 30; Plant response rating, Corn (corn (Zea mays); [19]): 70; Plant response rating, Corn (corn (Zea mays); [20]): 20; Plant response rating, Foxtail, Giant ([12]; 31 g ai/ha): 90; Plant response rating, Foxtail, Giant ([12]; 125 g ai/ha): 100; Plant response rating, Galium [13, 19]: 100; Plant response rating, Galium [13, 20]: 60; Plant response rating, Barnyardgrass [14, 19]: 100; Plant response rating, Barnyardgrass [14, 20]: 60; Plant response rating, Pigweed [15, 19]: 100; Plant response rating, Pigweed [15, 20]: 100; Plant response rating, Sedge, Umbrella [16]: 100; Plant response rating, Ducksalad [17]: 100; Plant response rating, Barnyardgrass ([18]; 31 g ai/ha): 90; Plant response rating, Barnyardgrass ([18]; 125 g ai/ha): 100
Cc1cccc(Oc2ncc(Cl)cn2)c1OCCCC#N [Compound 70]	0	0	0	0	0	20	0	0	0	50	30	20	20	0	0	0	0	0	0	0	Plant response rating, Blackgrass [11, 19]: 0; Plant response rating, Blackgrass [11, 20]: 0; Plant response rating, Corn (corn (Zea mays); [19]): 20; Plant response rating, Corn (corn (Zea mays); [20]): 0; Plant response rating, Foxtail, Giant ([12]; 31 g ai/ha): 0; Plant response rating, Foxtail, Giant ([12]; 125 g ai/ha): 30; Plant response rating, Galium [13, 19]: 20; Plant response rating, Galium [13, 20]: 0; Plant response rating, Barnyardgrass [14, 19]: 30; Plant response rating, Barnyardgrass [14, 20]: 0; Plant response rating, Pigweed [15, 19]: 40; Plant response rating, Pigweed [15, 20]: 20; Plant response rating, Sedge, Umbrella [16]: 50; Plant response rating, Ducksalad [17]: 70; Plant response rating, Barnyardgrass ([18]; 31 g ai/ha): 0; Plant response rating, Barnyardgrass ([18]; 125 g ai/ha): 70
C#Cc1cccc(Oc2ncc(Cl)cn2)c1OCCCF [Compound 71]	0	0	0	0	0	0	0	0	0	0	0	0	0	0	0	0	0	0	0	0	Plant response rating, Blackgrass [11, 19]: 0; Plant response rating, Blackgrass [11, 20]: 0; Plant response rating, Corn (corn (Zea mays); [19]): 0; Plant response rating, Corn (corn (Zea mays); [20]): 0; Plant response rating, Foxtail, Giant ([12]; 31 g ai/ha): 0; Plant response rating, Foxtail, Giant ([12]; 125 g ai/ha): 0; Plant response rating, Galium [13, 19]: 0; Plant response rating, Galium [13, 20]: 0; Plant response rating, Barnyardgrass [14, 19]: 0; Plant response rating, Barnyardgrass [14, 20]: 0; Plant response rating, Pigweed [15, 19]: 0; Plant response rating, Pigweed [15, 20]: 0; Plant response rating, Sedge, Umbrella [16]: 0; Plant response rating, Ducksalad [17]: 0; Plant response rating, Barnyardgrass ([18]; 31 g ai/ha): 0; Plant response rating, Barnyardgrass ([18]; 125 g ai/ha): 0
N#Cc1cccc(Oc2ncc(Cl)cn2)c1OCCCC(F)(F)F [Compound 72]	10	0	0	20	0	10	0	0	0	60	70	30	10	0	0	0	25	40	10	0	Plant response rating, Blackgrass [11, 19]: 20; Plant response rating, Blackgrass [11, 20]: 0; Plant response rating, Corn (corn (Zea mays); [19]): 20; Plant response rating, Corn (corn (Zea mays); [20]): 10; Plant response rating, Foxtail, Giant ([12]; 31 g ai/ha): 10; Plant response rating, Foxtail, Giant ([12]; 125 g ai/ha): 90; Plant response rating, Galium [13, 19]: 60; Plant response rating, Galium [13, 20]: 20; Plant response rating, Barnyardgrass [14, 19]: 30; Plant response rating, Barnyardgrass [14, 20]: 10; Plant response rating, Pigweed [15, 19]: 60; Plant response rating, Pigweed [15, 20]: 30; Plant response rating, Sedge, Umbrella [16]: 90; Plant response rating, Ducksalad [17]: 100; Plant response rating, Barnyardgrass ([18]; 31 g ai/ha): 10; Plant response rating, Barnyardgrass ([18]; 125 g ai/ha): 80
O=C(COc1c(Br)cccc1Oc1ncc(Cl)cn1)C(F)(F)C(F)(F)F [Compound 73]	0	0	0	0	0	0	0	0	40	50	50	0	0	0	0	0	0	10	0	0	Plant response rating, Blackgrass [11, 19]: 20; Plant response rating, Blackgrass [11, 20]: 0; Plant response rating, Corn (corn (Zea mays); [19]): 10; Plant response rating, Corn (corn (Zea mays); [20]): 0; Plant response rating, Foxtail, Giant ([12]; 31 g ai/ha): 0; Plant response rating, Foxtail, Giant ([12]; 125 g ai/ha): 0; Plant response rating, Galium [13, 19]: 40; Plant response rating, Galium [13, 20]: 10; Plant response rating, Barnyardgrass [14, 19]: 10; Plant response rating, Barnyardgrass [14, 20]: 0; Plant response rating, Pigweed [15, 19]: 60; Plant response rating, Pigweed [15, 20]: 30; Plant response rating, Sedge, Umbrella [16]: 0; Plant response rating, Ducksalad [17]: 0; Plant response rating, Barnyardgrass ([18]; 31 g ai/ha): 0; Plant response rating, Barnyardgrass ([18]; 125 g ai/ha): 0
